13 molecules from patent US11878973B2, “Bicyclic compounds and their uses” (NOVARTIS AG, priority 2021, dated 2024) can be followed below.

The test system of assay [1] is SW48 xenografts. The settings on record: 240 mg/kg qd oral.
The test system of assay [2] is DLD1-WRN-KO cells. Kind of assay: Proliferation assay DLD1-WRN-KO (CellTiterGlo, 96 hours; off-target effects). The settings on record: Homo sapiens, read-out: Proliferation Assay DLD1-WRN-KO (GI50). Background: Cellular ATP, detected with luciferase, serves as a proxy for viable cell number.
The test system of assay [3] is SW48 cells. The assay can be described thus: Proliferation assay SW48 (CellTiterGlo, 96 hours). Conditions: Homo sapiens, SW48, read-out: Proliferation Assay SW48 (GI50).
In assay [4] the target is WRN helicase (Homo sapiens (Human), UniProt Q14191). The assay can be described thus: In vitro enzymatic activity assay on WRN helicase (DNA dependent ATPase assay, ADP-Glo). Format: biochemical. Conditions: geometric means of at least 2 determinations; read-out: WRN ATPase Activity (IC50). The procedure, abridged: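 The WRN helicase core (aa N517-P1238), 10 nM, hydrolysed 300 µM ATP in the presence of 0.2 nM FLAP26 DNA (Tris pH 7.5, 2 mM MgCl2, 50 mM NaCl) for 30 min at room temperature. ADP formed was quantified by ADP-Glo luminescence.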
WRN helicase, sequence (Q14191 517-1238): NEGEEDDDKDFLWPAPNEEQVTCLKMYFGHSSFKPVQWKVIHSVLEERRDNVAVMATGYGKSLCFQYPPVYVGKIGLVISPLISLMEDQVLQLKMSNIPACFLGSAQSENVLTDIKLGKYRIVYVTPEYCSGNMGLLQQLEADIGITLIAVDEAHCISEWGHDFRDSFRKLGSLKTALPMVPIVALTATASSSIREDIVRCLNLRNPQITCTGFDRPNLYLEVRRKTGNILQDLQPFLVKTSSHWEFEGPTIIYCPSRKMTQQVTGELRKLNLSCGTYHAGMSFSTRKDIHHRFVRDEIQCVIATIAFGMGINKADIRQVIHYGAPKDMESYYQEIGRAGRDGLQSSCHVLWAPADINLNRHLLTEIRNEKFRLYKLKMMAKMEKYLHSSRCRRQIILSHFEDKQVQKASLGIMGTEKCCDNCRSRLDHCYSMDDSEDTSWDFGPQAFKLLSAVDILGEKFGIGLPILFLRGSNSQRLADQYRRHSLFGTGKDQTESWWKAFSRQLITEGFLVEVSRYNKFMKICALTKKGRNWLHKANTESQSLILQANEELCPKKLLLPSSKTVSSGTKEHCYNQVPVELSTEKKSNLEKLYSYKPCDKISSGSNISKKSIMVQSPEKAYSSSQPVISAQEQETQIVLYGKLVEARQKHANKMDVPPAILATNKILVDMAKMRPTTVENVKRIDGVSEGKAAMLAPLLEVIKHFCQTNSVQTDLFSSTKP
On the technique in general: In ADP-Glo the light output rises with the ADP produced.

With `CCc1c(N2CCN(C(=O)c3ncccc3O)CC2)c(=O)n2nc(C3=CCOCC3)nc2n1CC(=O)Nc1ccc(C(F)(F)F)cc1C` [Example 58, 2-(2-(3,6-dihydro-2H-pyran-4-yl)-5-ethyl-6-(4-(3-hydroxypicolinoyl)piperazin-1-yl)-7-oxo-[1,2,4]triazolo[1,5-a]pyrimidin-4(7H)-yl)-N-(2-methyl-4-(trifluoromethyl)phenyl)acetamide], in assay [1] (SW48 xenografts in nude mice), the antitumor response result is given as “induced an antitumor response”. Also, in assay [1] (day 18, SW48 xenografts in nude mice, p<0.05 vs vehicle), the T/C % value is recorded as −9%. Also, in assay [1] (day 18, in the 4/7 surviving animals), the “tumor regression (mean tumor volume)” value was −26%.
As usually defined, the IC50 is the point on the concentration scale where inhibition reaches its midpoint. Consider `CCc1c(N2CCN(C(=O)c3ncnc(C)c3O)[C@H](C)[C@H]2C)c(=O)n2nc(C3=CCOCC3)nc2n1CC(=O)Nc1ccc(C(F)(F)F)cc1Cl` [Example 119, N-(2-chloro-4-(trifluoromethyl)phenyl)-2-(2-(3,6-dihydro-2H-pyran-4-yl)-5-ethyl-6-((2R,3R)-4-(5-hydroxy-6-methylpyrimidine-4-carbonyl)-2,3-dimethylpiperazin-1-yl)-7-oxo-[1,2,4]triazolo[1,5-a]pyrimidin-4(7H)-yl)acetamide], for which the results for the GI50 in assay [2] and in assay [3] were greater than 10000 nM and 50 nM, respectively. The IC50 in assay [4] came to 160 nM.
As for `CCc1c(N2CCN(C(=O)c3ncnc(C)c3O)[C@@H](C)[C@@H]2C)c(=O)n2nc(C3=CCOCC3)nc2n1CC(=O)Nc1ccc(C(F)(F)F)cc1Cl` [Example 120, N-(2-chloro-4-(trifluoromethyl)phenyl)-2-(2-(3,6-dihydro-2H-pyran-4-yl)-5-ethyl-6-((2S,3S)-4-(5-hydroxy-6-methylpyrimidine-4-carbonyl)-2,3-dimethylpiperazin-1-yl)-7-oxo-[1,2,4]triazolo[1,5-a]pyrimidin-4(7H)-yl)acetamide], the figures for the GI50 in assay [2] and in assay [3] were greater than 10000 nM and 930 nM, respectively. The half-inhibitory concentration (IC50) in assay [4] worked out at 470 nM.
The matching figures for `CCc1c(N2CCN(C(=O)c3ncnc(C)c3O)[C@@H]3CC[C@H]32)c(=O)n2nc(C3=CCOCC3)nc2n1CC(=O)Nc1ccc(C(F)(F)F)cc1Cl` [Example 124, N-(2-chloro-4-(trifluoromethyl)phenyl)-2-(2-(3,6-dihydro-2H-pyran-4-yl)-5-ethyl-6-((1R,6R)-5-(5-hydroxy-6-methylpyrimidine-4-carbonyl)-2,5-diazabicyclo[4.2.0]octan-2-yl)-7-oxo-[1,2,4]triazolo[1,5-a]pyrimidin-4(7H)-yl)acetamide]: greater than 10000 nM, 390 nM and 360 nM.
The matching figures for `CCc1c(N2CCN(C(=O)c3ncnc(C)c3O)[C@H]3CC[C@@H]32)c(=O)n2nc(C3=CCOCC3)nc2n1CC(=O)Nc1ccc(C(F)(F)F)cc1Cl` [Example 125, N-(2-chloro-4-(trifluoromethyl)phenyl)-2-(2-(3,6-dihydro-2H-pyran-4-yl)-5-ethyl-6-((1 S,6S)-5-(5-hydroxy-6-methylpyrimidine-4-carbonyl)-2,5-diazabicyclo[4.2.0]octan-2-yl)-7-oxo-[1,2,4]triazolo[1,5-a]pyrimidin-4(7H)-yl)acetamide]: greater than 10000 nM, 10 nM and 30 nM.
Regarding `CCc1c(N2CCN(C(=O)c3ncnc(C)c3O)CC2)c(=O)n2nc(C3=CC[C@H](F)CO3)nc2n1CC(=O)Nc1ccc(C(F)(F)F)cc1Cl` [Example 127, (S)—N-(2-chloro-4-(trifluoromethyl)phenyl)-2-(5-ethyl-2-(3-fluoro-3,4-dihydro-2H-pyran-6-yl)-6-(4-(5-hydroxy-6-methylpyrimidine-4-carbonyl)piperazin-1-yl)-7-oxo-[1,2,4]triazolo[1,5-a]pyrimidin-4(7H)-yl)acetamide], the GI50 in assay [2] was greater than 10000 nM; in assay [3], 90 nM. In assay [4], the IC50 came to 80 nM.
Regarding `CCc1c(N2CCN(C(=O)c3nc(N4CCN(C)CC4)ncc3O)CC2)c(=O)n2nc(C3=CCOCC3)nc2n1CC(=O)Nc1ccc(C(F)(F)F)cc1C` [Example 128, 2-(2-(3,6-dihydro-2H-pyran-4-yl)-5-ethyl-6-(4-(5-hydroxy-2-(4-methylpiperazin-1-yl)pyrimidine-4-carbonyl)piperazin-1-yl)-7-oxo-[1,2,4]triazolo[1,5-a]pyrimidin-4(7H)-yl)-N-(2-methyl-4-(trifluoromethyl)phenyl)acetamide], the results for the GI50 in assay [2] and in assay [3] were greater than 10000 nM and 690 nM, respectively. The IC50 in assay [4] amounted to 80 nM.
Take `Cc1nc(C(F)(F)F)ccc1NC(=O)Cn1c(C)c(N2CCN(C(=O)c3ncccc3O)CC2)c(=O)n2nc(C3=CCOCC3)nc12` [Example 129, 2-(2-(3,6-dihydro-2H-pyran-4-yl)-6-(4-(3-hydroxypicolinoyl)piperazin-1-yl)-5-methyl-7-oxo-[1,2,4]triazolo[1,5-a]pyrimidin-4(7H)-yl)-N-(2-methyl-6-(trifluoromethyl)pyridin-3-yl)acetamide]: the GI50 is greater than 10000 nM in assay [2] and 2550 nM in assay [3]. In addition, the half-inhibitory concentration (IC50) in assay [4] amounted to 500 nM.
`CCc1c(N2CCN(C(=O)c3ncnc(C)c3O)CC2)c(=O)n2nc(C3=CCN(C(=O)OC(C)(C)C)CC3)nc2n1CC(=O)Nc1ccc(C(F)(F)F)cc1C` [Example 130, tert-butyl 4-(5-ethyl-6-(4-(5-hydroxy-6-methylpyrimidine-4-carbonyl)piperazin-1-yl)-4-(2-((2-methyl-4-(trifluoromethyl)phenyl)amino)-2-oxoethyl)-7-oxo-4,7-dihydro-[1,2,4]triazolo[1,5-a]pyrimidin-2-yl)-3,6-dihydropyridine-1 (2H)-carboxylate]: the GI50 in assay [2] is greater than 10000 nM; in assay [3] it was 50 nM. For the same molecule, in assay [4], the IC50 was determined as 100 nM.
Turning to `O=C(Cn1c(C2CC2)c(N2CCN(C(=O)c3ncccc3O)CC2)c(=O)n2nc(C3=CCOCC3)nc12)Nc1ccc(C(F)(F)F)cc1` [Example 134, 2-(5-cyclopropyl-2-(3,6-dihydro-2H-pyran-4-yl)-6-(4-(3-hydroxypicolinoyl)piperazin-1-yl)-7-oxo-[1,2,4]triazolo[1,5-a]pyrimidin-4(7H)-yl)-N-(4-(trifluoromethyl)phenyl)acetamide], the values for the GI50 in assay [2] and in assay [3] were greater than 10000 nM and 210 nM, respectively. Besides, in assay [4], the IC50 was determined as 60 nM.
As to `Cc1cc(C(F)(F)F)ccc1NC(=O)Cn1c(CCO)c(N2CCN(C(=O)c3ncccc3O)CC2)c(=O)n2nc(C3=CCOCC3)nc12` [Example 135, 2-(2-(3,6-dihydro-2H-pyran-4-yl)-5-(2-hydroxyethyl)-6-(4-(3-hydroxypicolinoyl)piperazin-1-yl)-7-oxo-[1,2,4]triazolo[1,5-a]pyrimidin-4(7H)-yl)-N-(2-methyl-4-(trifluoromethyl)phenyl)acetamide], the GI50 in assay [2] is greater than 10000 nM; in assay [3], 280 nM. In addition, the IC50 in assay [4] amounted to 130 nM.
`Cc1c(C2CCN(C(=O)c3ncccc3O)CC2)c(=O)n2nc(C3=CCOCC3)nc2n1CC(=O)Nc1ccc(C(F)(F)F)cc1` [Example 136, 2-(2-(3,6-dihydro-2H-pyran-4-yl)-6-(1-(3-hydroxypicolinoyl)piperidin-4-yl)-5-methyl-7-oxo-[1,2,4]triazolo[1,5-a]pyrimidin-4(7H)-yl)-N-(4-(trifluoromethyl)phenyl)acetamide]: the GI50 was greater than 10000 nM in assay [2] and 650 nM in assay [3]. Besides, the concentration for half-maximal inhibition (IC50) in assay [4] came out at 80 nM.
For the molecule `CCc1c(N2CCN(S(=O)(=O)c3ncccc3O)CC2)c(=O)n2nc(C3=CCOCC3)nc2n1CC(=O)Nc1ccc(C(F)(F)F)cc1Cl` [Example 137, N-(2-chloro-4-(trifluoromethyl)phenyl)-2-(2-(3,6-dihydro-2H-pyran-4-yl)-5-ethyl-6-(4-((3-hydroxypyridin-2-yl)sulfonyl)piperazin-1-yl)-7-oxo-[1,2,4]triazolo[1,5-a]pyrimidin-4(7H)-yl)acetamide], the GI50 in assay [2] worked out at 6100 nM; in assay [3], 240 nM. In assay [4], the half-inhibitory concentration (IC50) was 50 nM.
